Assay results as given in US20210230203A1, “Amphiphilic Kanamycin Compositions and Methods” (priority 2020, published 2021).
In brackets after ≈: the same amount, converted by molar mass.

Legend:
[1] = tested on: S. aureus (ATCC 33591) MRSA; type: cell-based
[2] = tested on: C. krusei; assay: MIC against various species, CLSI M27 & M38 (Table 4); conditions: C. krusei AC ATCC 6258; Table 4; RPMI 0.165M MOPS; 24-72 hours
[3] = tested on: Apaphysomyces; assay: as above; type: cell-based, Apophysomyces; conditions: 24-72 hours
[4] = tested on: C. krusei; assay: MIC against yeast, CLSI M27 & M38 (Table 2); conditions: C. krusei ATCC 6258; Table 2; RPMI 0.165M MOPS; 24-72 hours
[5] = tested on: Candida guillermondii; assay: MIC against yeast, CLSI M27 & M38 (Table 2); conditions: 24-72 hours
[6] = tested on: Rhodotorula pilimanae; assay: MIC against fungal strains (Table 1); type: cell-based
[7] = tested on: C. albicans; assay: MIC against various species, CLSI M27 & M38 (Table 4); conditions: 24-72 hours
[8] = tested on: S. aureus (ATCC 43300) MRSA; type: cell-based
[9] = tested on: C. auris; assay: MIC against various species, CLSI M27 & M38 (Table 4); conditions: 24-72 hours
[10] = tested on: Cryptococcus neoformans; assay: MIC against yeast, CLSI M27 & M38 (Table 2); conditions: 24-72 hours
[11] = Apaphysomyces APO1, RPMI 0.165M MOPS
[12] = Apaphysomyces APO2, RPMI 0.165M MOPS
[13] = Apaphysomyces APO3, RPMI 0.165M MOPS
[14] = Candida guillermondii CGUI1, RPMI 0.165M MOPS
[15] = Candida guillermondii CGUI2, RPMI 0.165M MOPS
[16] = Candida guillermondii CGUI3, RPMI 0.165M MOPS
[17] = C. albicans CA1, RPMI 0.165M MOPS
[18] = C. albicans CA2, RPMI 0.165M MOPS
[19] = C. albicans CA3, RPMI 0.165M MOPS
[20] = C. auris DI17-46, RPMI 0.165M MOPS
[21] = C. auris DI17-47, RPMI 0.165M MOPS
[22] = C. auris DI17-48, RPMI 0.165M MOPS
[23] = Cryptococcus neoformans CN1, RPMI 0.165M MOPS
[24] = Cryptococcus neoformans H99, RPMI 0.165M MOPS
[25] = Cryptococcus neoformans USC1597, RPMI 0.165M MOPS

## CCCCCCCCCCCCCCCC(=O)NC[C@H]1O[C@H](O[C@H]2[C@H](O)[C@@H](O[C@H]3O[C@H](CO)[C@@H](O)[C@H](N)[C@H]3O)[C@H](N)C[C@@H]2N)[C@H](O)[C@@H](O)[C@@H]1O [KI06]
[1]
  Minimum inhibitory concentration: 16 µg/mL (≈ 22.1 µM)
[2]
  Minimum inhibitory concentration 50%: 4 µg/mL (≈ 5.53 µM)
  Minimum inhibitory concentration 100%: 8 µg/mL (≈ 11.1 µM)
[3]; [11]
  Minimum inhibitory concentration 50%: 2 µg/mL (≈ 2.77 µM)
  Minimum inhibitory concentration 100%: 2 µg/mL (≈ 2.77 µM)
[3]; [12]
  Minimum inhibitory concentration 50%: 1 µg/mL (≈ 1.38 µM)
  Minimum inhibitory concentration 100%: 4 µg/mL (≈ 5.53 µM)
[3]; [13]
  Minimum inhibitory concentration 50%: 1 µg/mL (≈ 1.38 µM)
  Minimum inhibitory concentration 100%: 4 µg/mL (≈ 5.53 µM)
[4]
  Minimum inhibitory concentration 50%: 8 µg/mL (≈ 11.1 µM)
  Minimum inhibitory concentration 100%: 8 µg/mL (≈ 11.1 µM)
[5]; [14]
  Minimum inhibitory concentration 50%: 4 µg/mL (≈ 5.53 µM)
  Minimum inhibitory concentration 100%: 8 µg/mL (≈ 11.1 µM)
[5]; [15]
  Minimum inhibitory concentration 50%: 4 µg/mL (≈ 5.53 µM)
  Minimum inhibitory concentration 100%: 8 µg/mL (≈ 11.1 µM)
[5]; [16]
  Minimum inhibitory concentration 50%: 4 µg/mL (≈ 5.53 µM)
  Minimum inhibitory concentration 100%: 8 µg/mL (≈ 11.1 µM)
[6]
  Minimum inhibitory concentration: 4 µg/mL (≈ 5.53 µM)
[7]; [17]
  Minimum inhibitory concentration 50%: 4 µg/mL (≈ 5.53 µM)
  Minimum inhibitory concentration 100%: 4 µg/mL (≈ 5.53 µM)
[7]; [18]
  Minimum inhibitory concentration 50%: 4 µg/mL (≈ 5.53 µM)
  Minimum inhibitory concentration 100%: 8 µg/mL (≈ 11.1 µM)
[7]; [19]
  Minimum inhibitory concentration 50%: 2 µg/mL (≈ 2.77 µM)
  Minimum inhibitory concentration 100%: 4 µg/mL (≈ 5.53 µM)
[8]
  Minimum inhibitory concentration: 16 µg/mL (≈ 22.1 µM)
[9]; [20]
  Minimum inhibitory concentration 50%: 4 µg/mL (≈ 5.53 µM)
  Minimum inhibitory concentration 100%: 8 µg/mL (≈ 11.1 µM)
[9]; [21]
  Minimum inhibitory concentration 50%: 2 µg/mL (≈ 2.77 µM)
  Minimum inhibitory concentration 100%: 4 µg/mL (≈ 5.53 µM)
[9]; [22]
  Minimum inhibitory concentration 50%: 1 µg/mL (≈ 1.38 µM)
  Minimum inhibitory concentration 100%: 4 µg/mL (≈ 5.53 µM)
[10]; [23]
  Minimum inhibitory concentration 50%: 4 µg/mL (≈ 5.53 µM)
  Minimum inhibitory concentration 100%: 4 µg/mL (≈ 5.53 µM)
[10]; [24]
  Minimum inhibitory concentration 50%: 4 µg/mL (≈ 5.53 µM)
  Minimum inhibitory concentration 100%: 4 µg/mL (≈ 5.53 µM)
[10]; [25]
  Minimum inhibitory concentration 50%: 4 µg/mL (≈ 5.53 µM)
  Minimum inhibitory concentration 100%: 4 µg/mL (≈ 5.53 µM)
